Measured values reported in patent US20230167073A1 (Teijin Pharma Limited, priority 2020, published 2023).

Target: T1, Human TRPC6 (Homo sapiens, UniProt Q9Y210)
T1 construct: expressed in transfected cells
T1 sequence (Q9Y210 1-931): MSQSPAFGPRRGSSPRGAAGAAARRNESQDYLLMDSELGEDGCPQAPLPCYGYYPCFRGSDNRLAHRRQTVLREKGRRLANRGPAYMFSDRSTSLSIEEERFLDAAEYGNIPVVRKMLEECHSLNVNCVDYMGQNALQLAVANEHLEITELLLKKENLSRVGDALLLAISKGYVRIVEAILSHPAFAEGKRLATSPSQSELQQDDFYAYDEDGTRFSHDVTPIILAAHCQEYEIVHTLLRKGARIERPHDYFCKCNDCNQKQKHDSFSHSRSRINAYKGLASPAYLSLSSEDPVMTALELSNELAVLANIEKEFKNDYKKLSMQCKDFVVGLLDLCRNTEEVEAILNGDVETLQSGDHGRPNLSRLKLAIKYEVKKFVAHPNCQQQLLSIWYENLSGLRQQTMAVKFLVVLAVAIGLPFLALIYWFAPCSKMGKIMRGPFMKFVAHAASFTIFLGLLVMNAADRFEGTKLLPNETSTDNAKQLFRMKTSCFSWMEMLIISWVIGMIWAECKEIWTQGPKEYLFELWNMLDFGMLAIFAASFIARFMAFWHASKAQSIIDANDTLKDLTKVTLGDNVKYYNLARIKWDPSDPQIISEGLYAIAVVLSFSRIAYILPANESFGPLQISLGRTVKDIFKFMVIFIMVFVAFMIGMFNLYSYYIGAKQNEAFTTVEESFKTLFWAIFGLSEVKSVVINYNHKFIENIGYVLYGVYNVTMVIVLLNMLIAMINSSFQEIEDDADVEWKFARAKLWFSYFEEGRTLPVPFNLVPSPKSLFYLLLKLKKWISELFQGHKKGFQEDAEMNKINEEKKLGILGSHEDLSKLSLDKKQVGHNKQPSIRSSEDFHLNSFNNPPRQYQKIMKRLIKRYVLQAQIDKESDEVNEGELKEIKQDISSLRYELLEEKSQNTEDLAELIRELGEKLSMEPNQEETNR
Test: Evaluation of TRPC6 channel inhibitory activity (1), FLIPR Calcium 5 Assay Kit, OAG stimulation (Compound Nos. 1-1293)
Format: cell-based
Conditions: Human TRPC6 stably-expressing cells, OAG 30 μM, FLIPR Calcium 5 Assay Kit; read-out: Inhibitory activity (pIC50 class) (converted)
How it was run: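 Cells stably expressing human TRPC6, plated 24 h before, were loaded 30 min with Calcium 5 dye plus probenecid in HEPES-HBSS. Compound was added 20 min before OAG (30 μM final) and fluorescence tracked on FLIPR. Inhibition normalised to no-compound and no-compound/no-OAG wells; pIC50 from four-parameter fit, reported as +/++/+++ categories.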

IC50 | Compound
< 10 nM | Cn1nc(-c2ccccn2)cc1Cc1cc(C#N)ccc1-c1ncc(CN)cn1 [compound 1205, 4-[5-(aminomethyl)pyrimidin-2-yl]-3-[(2-methyl-5-pyridin-2-ylpyrazol-3-yl)methyl]benzonitrile]
< 10 nM | CCN(CC)c1cc(Cc2cc(C#N)ccc2-c2ncc(CN)cn2)n(C)n1 [compound 1206, 4-[5-(aminomethyl)pyrimidin-2-yl]-3-[[5-(diethylamino)-2-methylpyrazol-3-yl]methyl]benzonitrile]
< 10 nM | CCN(CC)c1cc(Cc2cc(C#N)ccc2-c2ncc(CCN)cn2)n(C)n1 [compound 1207, 4-[5-(2-aminoethyl)pyrimidin-2-yl]-3-[[5-(diethylamino)-2-methylpyrazol-3-yl]methyl]benzonitrile]
< 10 nM | CCN(CC)c1cc(Cc2cc(C#N)ccc2-c2ccc(CCN)cn2)n(C)n1 [compound 1208, 4-[5-(2-aminoethyl)pyridin-2-yl]-3-[[5-(diethylamino)-2-methylpyrazol-3-yl]methyl]benzonitrile]
10 to 1000 nM | CN(C)c1cc(Cc2cc(C#N)ccc2-c2ncc(CN)cn2)n(C)n1 [compound 1209, 4-[5-(aminomethyl)pyrimidin-2-yl]-3-[[5-(dimethylamino)-2-methylpyrazol-3-yl]methyl]benzonitrile]
< 10 nM | Cn1nc(N2CCCC2)cc1Cc1cc(C#N)ccc1-c1ncc(CN)cn1 [compound 1210, 4-[5-(aminomethyl)pyrimidin-2-yl]-3-[(2-methyl-5-pyrrolidin-1-ylpyrazol-3-yl)methyl]benzonitrile]
< 10 nM | Cn1nc(N2CCCC2)cc1Cc1cc(C#N)ccc1-c1ncc(CCN)cn1 [compound 1211, 4-[5-(2-aminoethyl)pyrimidin-2-yl]-3-[(2-methyl-5-pyrrolidin-1-ylpyrazol-3-yl)methyl]benzonitrile]
< 10 nM | Cn1nc(N2CCCC2)cc1Cc1cc(C#N)ccc1-c1ccc(CCN)cn1 [compound 1212, 4-[5-(2-aminoethyl)pyridin-2-yl]-3-[(2-methyl-5-pyrrolidin-1-ylpyrazol-3-yl)methyl]benzonitrile]
10 to 1000 nM | Cn1nc(N2CCCCC2)cc1Cc1cc(C#N)ccc1-c1ncc(CN)cn1 [compound 1213, 4-[5-(aminomethyl)pyrimidin-2-yl]-3-[(2-methyl-5-piperidin-1-ylpyrazol-3-yl)methyl]benzonitrile]
< 10 nM | Cn1nc(-c2ccccn2)cc1Cc1cc(C#N)ccc1-c1ncc(CCN)cn1 [compound 1214, 4-[5-(2-aminoethyl)pyrimidin-2-yl]-3-[(2-methyl-5-pyridin-2-ylpyrazol-3-yl)methyl]benzonitrile]
< 10 nM | Cn1nc(-c2ccccn2)cc1Cc1cc(C#N)ccc1-c1ccc(CCN)cn1 [compound 1215, 4-[5-(2-aminoethyl)pyridin-2-yl]-3-[(2-methyl-5-pyridin-2-ylpyrazol-3-yl)methyl]benzonitrile]
10 to 1000 nM | CN(C)c1cc(Cc2cc(C#N)ccc2-c2ncc(CCN)cn2)n(C)n1 [compound 1216, 4-[5-(2-aminoethyl)pyrimidin-2-yl]-3-[[5-(dimethylamino)-2-methylpyrazol-3-yl]methyl]benzonitrile]
< 10 nM | CN(C)c1cc(Cc2cc(C#N)ccc2-c2ccc(CCN)cn2)n(C)n1 [compound 1217, 4-[5-(2-aminoethyl)pyridin-2-yl]-3-[[5-(dimethylamino)-2-methylpyrazol-3-yl]methyl]benzonitrile]
< 10 nM | Cn1nc(N2CCCCC2)cc1Cc1cc(C#N)ccc1-c1ncc(CCN)cn1 [compound 1218, 4-[5-(2-aminoethyl)pyrimidin-2-yl]-3-[(2-methyl-5-piperidin-1-ylpyrazol-3-yl)methyl]benzonitrile]
< 10 nM | Cn1nc(N2CCCCC2)cc1Cc1cc(C#N)ccc1-c1ccc(CCN)cn1 [compound 1219, 4-[5-(2-aminoethyl)pyridin-2-yl]-3-[(2-methyl-5-piperidin-1-ylpyrazol-3-yl)methyl]benzonitrile]
> 1000 nM | NCCc1cnc(-c2ccc(F)cc2Cc2cnn(-c3ccccn3)c2)nc1 [compound 1220, 2-[2-[4-fluoro-2-[(1-pyridin-2-ylpyrazol-4-yl)methyl]phenyl]pyrimidin-5-yl]ethanamine]

IC50 | Compound
10 to 1000 nM | CC(C)Cn1cc(Cc2cc(F)ccc2-c2ccc(CCN)cn2)cn1 [compound 1221, 2-[6-[4-fluoro-2-[[1-(2-methylpropyl)pyrazol-4-yl]methyl]phenyl]pyridin-3-yl]ethanamine]
10 to 1000 nM | CC(C)Cn1cc(Cc2cc(F)ccc2-c2ncc(CCN)cn2)cn1 [compound 1222, 2-[2-[4-fluoro-2-[[1-(2-methylpropyl)pyrazol-4-yl]methyl]phenyl]pyrimidin-5-yl]ethanamine]
> 1000 nM | CC(C)Cn1cc(Cc2cc(F)ccc2-c2ncc(CN)cn2)cn1 [compound 1223, [2-[4-fluoro-2-[[1-(2-methylpropyl)pyrazol-4-yl]methyl]phenyl]pyrimidin-5-yl]methanamine]
10 to 1000 nM | Cc1nn(CC(C)C)cc1Cc1cc(F)ccc1-c1ncc(CCN)cn1 [compound 1224, 2-[2-[4-fluoro-2-[[3-methyl-1-(2-methylpropyl)pyrazol-4-yl]methyl]phenyl]pyrimidin-5-yl]ethanamine]
10 to 1000 nM | Cc1nn(CC(C)C)cc1Cc1cc(F)ccc1-c1ncc(CN)cn1 [compound 1225, [2-[4-fluoro-2-[[3-methyl-1-(2-methylpropyl)pyrazol-4-yl]methyl]phenyl]pyrimidin-5-yl]methanamine]
10 to 1000 nM | C=C(c1cc(N2CCOCC2)nc(C)n1)c1cc(C#N)ccc1-c1ccc(CCN)cc1 [compound 1228, 4-[4-(2-aminoethyl)phenyl]-3-[1-(2-methyl-6-morpholin-4-ylpyrimidin-4-yl)ethenyl]benzonitrile]
10 to 1000 nM | N#Cc1ccc(-c2ccc(CCN)cc2)c(C(O)c2cc(-c3ccccc3)no2)c1 (centres unmarked) [compound 1229, 4-[4-(2-aminoethyl)phenyl]-3-[hydroxy-(3-phenyl-1,2-oxazol-5-yl)methyl]benzonitrile]
> 1000 nM | COC(c1cnc(-c2ccccc2)s1)c1cc(C#N)ccc1-c1ccc(CCN)cc1 (centres unmarked) [compound 1230, 4-[4-(2-aminoethyl)phenyl]-3-[methoxy-(2-phenyl-1,3-thiazol-5-yl)methyl]benzonitrile]
10 to 1000 nM | COC(c1cc(-c2ccccc2)no1)c1cc(C#N)ccc1-c1ccc(CCN)cc1 (centres unmarked) [compound 1231, 4-[4-(2-aminoethyl)phenyl]-3-[methoxy-(3-phenyl-1,2-oxazol-5-yl)methyl]benzonitrile]
< 10 nM | Cn1nc(C(C)(C)C)cc1C(O)c1cc(C#N)ccc1-c1ccc(CN)cn1 (centres unmarked) [compound 1233, 4-[5-(aminomethyl)pyridin-2-yl]-3-[(5-tert-butyl-2-methylpyrazol-3-yl)-hydroxymethyl]benzonitrile]
< 10 nM | Cn1nc(C(C)(C)C)cc1C(O)c1cc(C#N)ccc1-c1ncc(CN)cn1 (centres unmarked) [compound 1234, 4-[5-(aminomethyl)pyrimidin-2-yl]-3-[(5-tert-butyl-2-methylpyrazol-3-yl)-hydroxymethyl]benzonitrile]
10 to 1000 nM | Cn1nc(C(C)(C)C)cc1C(O)c1cc(C#N)ccc1-c1ncc(CCN)cn1 (centres unmarked) [compound 1235, 4-[5-(2-aminoethyl)pyrimidin-2-yl]-3-[(5-tert-butyl-2-methylpyrazol-3-yl)-hydroxymethyl]benzonitrile]
10 to 1000 nM | COC(c1cc(C#N)ccc1-c1ncc(CCN)cn1)c1cc(C(C)(C)C)nn1C (centres unmarked) [compound 1236, 4-[5-(2-aminoethyl)pyrimidin-2-yl]-3-[(5-tert-butyl-2-methylpyrazol-3-yl)-methoxymethyl]benzonitrile]
> 1000 nM | N#Cc1ccc(-c2ccc(C(O)CN)cc2)c(Sc2cnnc(N3CCOCC3)c2)c1 (centres unmarked) [compound 1238, 4-[4-(2-amino-1-hydroxyethyl)phenyl]-3-(6-morpholin-4-ylpyridazin-4-yl)sulfanylbenzonitrile]
< 10 nM | N#Cc1ccc(-c2ccc(CCN)cc2)c(Sc2cnnc(N3CCOCC3)c2)c1 [compound 1239, 4-[4-(2-aminoethyl)phenyl]-3-(6-morpholin-4-ylpyridazin-4-yl)sulfanylbenzonitrile]
< 10 nM | N#Cc1ccc(-c2ccc(CCN)cc2)c(Sc2cnnc(N3CCCC3)c2)c1 [compound 1241, 4-[4-(2-aminoethyl)phenyl]-3-(6-pyrrolidin-1-ylpyridazin-4-yl)sulfanylbenzonitrile]
